Consider six compounds from ChEMBL document CHEMBL4699534, “Optimizing PEG-Extended Apelin Analogues as Cardioprotective Drug Leads: Importance of the KFRR Motif and Aromatic Head Group for Improved Physiological Activity” (J Med Chem, 2020).

pEC50, pIC50: −log10 of the molar value. Non-standard residues stand in square brackets, D forms with d. Residues, ends and D or L forms follow the SMILES beside them. *: point of attachment. PEG10 = NCCOCCOCCOCCOCCOCCOCCOCCOCCOCCOCCC(=O)O; Phe(4-Br) = N[C@@H](Cc1ccc(Br)cc1)C(=O)O; PEG7 = NCCOCCOCCOCCOCCOCCOCCOCCC(=O)O; Fmoc = O=C(OCC1c2ccccc2-c2ccccc21)*; NMeL = CN[C@@H](CC(C)C)C(=O)O; Nle = CCCC[C@H](N)C(=O)O; Cbz = O=C(OCc1ccccc1)*; Aib = CC(C)(N)C(=O)O

In general, pIC50 refers to −log10 of the IC50, conventionally taken in molar units. Low values mean a high IC50, high ones a low IC50. For orientation: logD means lipophilicity at a set pH, counting ionised and neutral species. Low values mean a more hydrophilic compound, high ones a more lipophilic compound. As usually defined, the half-life is how long it takes for the measured level to halve. A higher half-life goes with slow decline. As a reminder, the pEC50 is the negative decadic logarithm of the EC50, by convention in mol/L.

Data set [1] in a line: Protein binding in 55% mouse plasma at 100 uM incubated for 3 hrs by LC/MS detection based equilibrium dialysis. The data set is classed as ADME, cell-free. To be noted: 55% plasma, read-out: PPB (converted). Background: Equilibrium dialysis compares concentrations on both sides of a semipermeable membrane.
The target in data set [2] is T1, Apelin receptor (Rattus norvegicus, UniProt Q9JHG3).
T1 sequence (Q9JHG3 whole entry): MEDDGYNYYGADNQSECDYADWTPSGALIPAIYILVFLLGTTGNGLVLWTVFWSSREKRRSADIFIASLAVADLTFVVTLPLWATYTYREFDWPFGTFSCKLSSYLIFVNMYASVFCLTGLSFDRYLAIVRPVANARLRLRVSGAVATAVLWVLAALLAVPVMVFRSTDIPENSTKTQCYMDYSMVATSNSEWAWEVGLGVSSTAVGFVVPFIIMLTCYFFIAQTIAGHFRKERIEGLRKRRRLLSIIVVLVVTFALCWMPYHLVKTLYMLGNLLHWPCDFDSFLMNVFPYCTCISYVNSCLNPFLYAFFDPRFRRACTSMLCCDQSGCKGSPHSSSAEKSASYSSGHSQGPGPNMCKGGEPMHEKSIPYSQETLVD
Nature of the data set: Displacement of [125I]-pyr-1-apelin-13 from EGFP-tagged wild-type rat apelin receptor expressed in CHO cell membranes by gamma counting method. Also noted: species or system Cell membrane. Background: Loss of bound radioactivity is the signal in a displacement assay; it reports binding, not function.

A short description of data set [3]: Lipophilicity, log D of the compound in pH 7.4 PBS by LC/MS detection based shake flask assay. Format: physicochemical.
Data set [4] is described as follows: Half life in mouse plasma at 400 uM by HPLC analysis. The data set is classed as ADME, cell-free.
The test system of data set [5] is Heart. The experiment in a line: Cardioprotective activity in mouse Langendorff heart perfusion and ischemia-reperfusion injury model assessed as maximum derivative of change in systolic blood pressure over time at 1 uM dosed at start of reperfusion for 10 mins. The data set is classed as functional.
A short description of data set [6]: Half life in human plasma at 400 uM by HPLC analysis. The data set is classed as ADME, cell-free.
In data set [7] the test system is Heart. Nature of the data set: Cardioprotective activity in mouse Langendorff heart perfusion and ischemia-reperfusion injury model assessed as left ventricle developed pressure at 1 uM dosed at start of reperfusion for 10 mins. The data set is classed as functional.
Another data set concerns Mus musculus. The experiment in a line: Cardioprotective activity in C57BL/6 mouse assessed as reduction in mean arterial blood pressure at 1.4 uM/kg, iv measured after 15 mins relative to control. The following applies: 0.25 h. The data set is classed as functional.
A short description of data set [8]: Protein binding in 55% human plasma at 100 uM incubated for 3 hrs by LC/MS detection based equilibrium dialysis. Format: ADME, cell-free. To be noted: 55% plasma, read-out: PPB (converted).
In data set [9] the target is T2, Apelin receptor (Homo sapiens, UniProt P35414).
T2 sequence (P35414 whole entry): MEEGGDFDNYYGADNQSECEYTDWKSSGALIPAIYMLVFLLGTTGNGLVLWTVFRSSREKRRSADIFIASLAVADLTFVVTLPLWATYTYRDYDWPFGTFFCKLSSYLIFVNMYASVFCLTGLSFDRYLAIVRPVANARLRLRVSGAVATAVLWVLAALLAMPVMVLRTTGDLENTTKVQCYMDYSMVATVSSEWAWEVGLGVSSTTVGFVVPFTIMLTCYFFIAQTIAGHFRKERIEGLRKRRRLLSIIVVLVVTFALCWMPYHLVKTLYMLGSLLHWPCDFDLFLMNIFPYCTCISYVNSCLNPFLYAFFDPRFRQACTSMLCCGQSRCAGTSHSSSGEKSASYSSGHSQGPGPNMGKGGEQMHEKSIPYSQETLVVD
Nature of the data set: Activation of APJ receptor (unknown origin) expressed in Chem-5 cells assessed as stimulation of Ca2+ mobilization by Calcium 6-GF dye based fluorescence based assay. The data set is classed as functional, cell-based. For orientation: Calcium assays in cells follow changes in intracellular calcium, usually with a dye or a luminescent sensor.

Turning to `CSCC[C@H](NC(=O)[C@@H]1CCCN1C(=O)CNC(=O)[C@H](CCCCN)NC(=O)[C@H](Cc1c[nH]cn1)NC(=O)[C@H](CO)NC(=O)[C@H](CC(C)C)NC(=O)[C@H](CCCNC(=N)N)NC(=O)[C@@H]1CCCN1C(=O)[C@H](CCCNC(=N)N)NC(=O)[C@H](CCC(N)=O)NC(=O)[C@H](CCCNC(=N)N)NC(=O)[C@H](CCCNC(=N)N)NC(=O)[C@H](Cc1ccccc1)NC(=O)[C@@H](N)CCCCN)C(=O)N1CCCC1C(=O)N[C@@H](Cc1ccccc1)C(=O)O` (some centres undefined), the fraction unbound at 3 h, 100 µM is 0.49 in data set [1] and 0.43 in [8]. At Apelin receptor [2], this compound gave a pIC50 of 10.30. The compound also displayed a logD in data set [3] of -2.57. Further, the half-life at 400 µM was 0.03 h in [4] and 0.02 h in data set [6]. Further, the dP/dt max with Heart [5] turned out to be 1020 mmHg/s. The Activity in the data set on Heart [7] was found to be 30 mmHg; with Mus musculus, 17 mmHg.
As to `CCCC[C@H](NC(=O)[C@@H]1CCCN1C(=O)CNC(=O)[C@H](CCCCN)NC(=O)[C@H](Cc1c[nH]cn1)NC(=O)[C@H](CO)NC(=O)[C@H](CC(C)C)N(C)C(=O)[C@H](CCCNC(=N)N)NC(=O)[C@@H]1CCCN1C(=O)[C@H](CCCNC(=N)N)NC(=O)[C@H](CCC(N)=O)NC(=O)[C@H](CCCNC(=N)N)NC(=O)[C@H](CCCNC(=N)N)NC(=O)[C@H](Cc1ccccc1)NC(=O)[C@@H](N)CCCCN)C(=O)NC(C)(C)C(=O)N[C@@H](Cc1ccc(Br)cc1)C(=O)O` (H-KFRRQRPR[NMeL]SHKGP[Nle][Aib][Phe(4-Br)]-OH), the fraction unbound at 3 h, 100 µM in [1] is 0.45; in [8], 0.48. On Apelin receptor [2], the pIC50 is 9.22. Besides, the logD in [3] was -2.01. Moreover, the figures for the half-life at 400 µM in data set [4] and in data set [6] were 0.9 h and 1.2 h, respectively. Also, the dP/dt max with Heart [5] came to 778 mmHg/s. The Activity worked out at 25 mmHg in the data set with Heart [7] and 30 mmHg in the data set with Mus musculus.
For `CCCC[C@H](NC(=O)[C@@H]1CCCN1C(=O)CNC(=O)[C@H](CCCCN)NC(=O)[C@H](Cc1c[nH]cn1)NC(=O)[C@H](CO)NC(=O)[C@H](CC(C)C)N(C)C(=O)[C@H](CCCNC(=N)N)NC(=O)[C@@H]1CCCN1C(=O)[C@H](CCCNC(=N)N)NC(=O)[C@H](CCC(N)=O)NC(=O)[C@H](CCCNC(=N)N)NC(=O)[C@H](CCCNC(=N)N)NC(=O)[C@H](Cc1ccccc1)NC(=O)[C@H](CCCCN)NC(=O)CCOCCOCCOCCOCCOCCOCCOCCN)C(=O)NC(C)(C)C(=O)N[C@@H](Cc1ccc(Br)cc1)C(=O)O` (H-[PEG7]KFRRQRPR[NMeL]SHKGP[Nle][Aib][Phe(4-Br)]-OH), the fraction unbound at 3 h, 100 µM was 0.31 in data set [1] and 0.21 in [8]. The pIC50 on Apelin receptor [2] is 8.77. Moreover, the logD in data set [3] was -1.82. Further, in [6], the half-life at 400 µM is 3 h. For the same compound, in the data set on Mus musculus, the Activity was found to be 35 mmHg. Moreover, the pEC50 on Apelin receptor [9] is 8.54.
As for `CCCC[C@H](NC(=O)[C@@H]1CCCN1C(=O)CNC(=O)[C@H](CCCCN)NC(=O)[C@H](Cc1c[nH]cn1)NC(=O)[C@H](CO)NC(=O)[C@H](CC(C)C)N(C)C(=O)[C@H](CCCNC(=N)N)NC(=O)[C@@H]1CCCN1C(=O)[C@H](CCCNC(=N)N)NC(=O)[C@H](CCC(N)=O)NC(=O)[C@H](CCCNC(=N)N)NC(=O)[C@H](CCCNC(=N)N)NC(=O)[C@H](Cc1ccccc1)NC(=O)[C@H](CCCCN)NC(=O)CCOCCOCCOCCOCCOCCOCCOCCNC(=O)OCc1ccccc1)C(=O)NC(C)(C)C(=O)N[C@@H](Cc1ccc(Br)cc1)C(=O)O` ({Cbz-PEG7}-KFRRQRPR[NMeL]SHKGP[Nle][Aib][Phe(4-Br)]-OH), the fraction unbound at 3 h, 100 µM in data set [1] is 0.17; in data set [8] it was 0.15. This compound gave a pIC50 on Apelin receptor [2] of 8.72. Besides, the logD in data set [3] was -1.54. Besides, the half-life at 400 µM in data set [4] was 2.9 h; in [6], 18.2 h. For the same compound, in the data set with Heart [5], the dP/dt max is 2600 mmHg/s. The Activity was 119 mmHg in the data set with Heart [7] and 43 mmHg in the data set with Mus musculus. The pEC50 at Apelin receptor [9] was 8.21.
With `CCCC[C@H](NC(=O)[C@@H]1CCCN1C(=O)CNC(=O)[C@H](CCCCN)NC(=O)[C@H](Cc1c[nH]cn1)NC(=O)[C@H](CO)NC(=O)[C@H](CC(C)C)N(C)C(=O)[C@H](CCCNC(=N)N)NC(=O)[C@@H]1CCCN1C(=O)[C@H](CCCNC(=N)N)NC(=O)[C@H](CCC(N)=O)NC(=O)[C@H](CCCNC(=N)N)NC(=O)[C@H](CCCNC(=N)N)NC(=O)[C@H](Cc1ccccc1)NC(=O)[C@H](CCCCN)NC(=O)CCOCCOCCOCCOCCOCCOCCOCCNC(=O)OCC1c2ccccc2-c2ccccc21)C(=O)NC(C)(C)C(=O)N[C@@H](Cc1ccc(Br)cc1)C(=O)O` ({Fmoc-PEG7}-KFRRQRPR[NMeL]SHKGP[Nle][Aib][Phe(4-Br)]-OH), the fraction unbound at 3 h, 100 µM in [1] was 0.11; in [8], 0.06. In addition, the pIC50 at Apelin receptor [2] is 9.26. This compound registered a logD in data set [3] of -1.45. The half-life at 400 µM in data set [4] is 2.8 h; in data set [6], 27 h. In addition, the dP/dt max in the data set with Heart [5] is 2050 mmHg/s. Moreover, the Activity with Heart [7] is 90 mmHg; with Mus musculus, 47 mmHg. Further, the pEC50 at Apelin receptor [9] is 8.60.
`CCCC[C@H](NC(=O)[C@@H]1CCCN1C(=O)CNC(=O)[C@H](CCCCN)NC(=O)[C@H](Cc1c[nH]cn1)NC(=O)[C@H](CO)NC(=O)[C@H](CC(C)C)N(C)C(=O)[C@H](CCCNC(=N)N)NC(=O)[C@@H]1CCCN1C(=O)[C@H](CCCNC(=N)N)NC(=O)[C@H](CCC(N)=O)NC(=O)[C@H](CCCNC(=N)N)NC(=O)[C@H](CCCNC(=N)N)NC(=O)[C@H](Cc1ccccc1)NC(=O)[C@H](CCCCN)NC(=O)CCOCCOCCOCCOCCOCCOCCOCCOCCOCCOCCNC(=O)OCC1c2ccccc2-c2ccccc21)C(=O)NC(C)(C)C(=O)N[C@@H](Cc1ccc(Br)cc1)C(=O)O` ({Fmoc-PEG10}-KFRRQRPR[NMeL]SHKGP[Nle][Aib][Phe(4-Br)]-OH): the pIC50 at Apelin receptor [2] is 8.62. Besides, in data set [6], the half-life at 400 µM is 17.2 h. In addition, the Activity in the data set with Mus musculus is on record as 28 mmHg. Also, the pEC50 at Apelin receptor [9] is 8.31.
